Laboratory results as given in ChEMBL document CHEMBL5512656, “Tetrazole derivatives in the management of neurological disorders: Recent advances on synthesis and pharmacological aspects” (Eur J Med Chem, 2024).
pIC50: −log10 of the molar value.

What was measured:
Mus musculus [1] = test: Antidepressant activity in Kunming mouse assessed as reduction in duration of immobility time at 30 mg/kg, ip by forced swim test; assay type: functional
Rattus norvegicus [2] = test: Anticonvulsant activity in po dosed scPTZ induced Albino rat seizure model measured after 4 hrs; assay type: functional
Rattus norvegicus [3] = test: Anticonvulsant activity in po dosed MES induced Albino rat seizure model measured after 4 hrs; assay type: functional
[4] = biological target: Acetylcholinesterase (Electrophorus electricus) (UniProt O42275); test: Inhibition of electric eel AChE using acetylthiocholine iodide as substrate preincubated for 15 mins followed by substrate addition and measured after 30 mins by Ellman's method relative to control; conditions: time 45.0 min
[5] = Cytotoxicity against mouse NIH/3T3 cells incubated for 24 hrs by MTT assay
Cholinesterase = Cholinesterase (Equus caballus, UniProt P81908); test: Inhibition of equine serum BChE using butyrylthiocholine chloride as substrate preincubated for 10 mins followed by substrate addition and measured after 15 mins by Ellman's method
Acetylcholinesterase [6] = biological target: T1, Acetylcholinesterase (Electrophorus electricus, UniProt O42275); test: Inhibition of electric eel AChE using acetylthiocholine iodide as substrate preincubated for 10 mins followed by substrate addition and measured after 15 mins by Ellman's method
[7] = biological target: Cholinesterase (Equus caballus) (UniProt P81908); test: Inhibition of equine serum BChE using butyrylthiocholine iodide as substrate preincubated for 15 mins followed by substrate addition and measured after 30 mins by Ellman's method relative to control; conditions: time 45.0 min
Mus musculus [8] = test: Anticonvulsant activity in ip dosed MES induced mouse seizure model measured after 0.5 and 4 hrs; assay type: functional
[9] = Neurotoxicity in ip dosed mouse by rotarod test; assay type: toxicity, organism-based; conditions: in vivo
Mus musculus [10] = test: Antidepressant activity in Kunming mouse assessed as reduction in duration of immobility time at 50 mg/kg, ip by forced swim test; assay type: functional
Mus musculus [11] = test: Antidepressant activity in Kunming mouse assessed as reduction in duration of immobility time at 40 mg/kg, ip by forced swim test; assay type: functional
Mus musculus [12] = test: Anticonvulsant activity in ip dosed scPTZ induced Kunming mouse seizure model measured for 30 mins; assay type: functional; conditions: 0.5 h
Mus musculus [13] = test: Anticonvulsant activity in ip dosed scPTZ induced Kunming mouse seizure model measured after 30 mins; assay type: functional; conditions: 0.5 h
Mus musculus [14] = test: Anticonvulsant activity in ip dosed MES induced Kunming mouse seizure model measured after 0.5, 1, 2, and 4 hrs intervals; assay type: functional
[15] = Neurotoxicity in ip dosed Kunming mouse by rotarod test; assay type: toxicity, organism-based; conditions: in vivo
[16] = Protection index, ratio of TD50 for neurotoxicity in ip dosed Kunming mouse to ED50 for anticonvulsant activity in ip dosed Kunming mouse; assay type: toxicity, organism-based; conditions: in vivo, read-out: PI
Acetylcholinesterase [17] = biological target: T1, Acetylcholinesterase; test: Inhibition of electric eel AChE using acetylthiocholine iodide as substrate incubated for 30 mins by Ellman's method
Mus musculus [18] = test: Anticonvulsant activity in po dosed MES induced Kunming mouse seizure model; assay type: functional
Acetylcholinesterase [19] = biological target: T1, Acetylcholinesterase; test: Inhibition of electric eel AChE using acetylthiocholine iodide as substrate preincubated for 15 mins followed by substrate addition and measured after 30 mins by Ellman's method
Mus musculus [20] = test: Anticonvulsant activity in ip dosed scPTZ induced Kunming mouse seizure model; assay type: functional
Mus musculus [21] = test: Anticonvulsant activity in ip dosed MES induced Kunming mouse seizure model; assay type: functional
[22] = Inhibition of 5-HT uptake in HEK293 cells transfected with human SERT at 1 uM by liquid scintillation counting analysis; assay type: functional
[23] = Inhibition of 5-HT uptake in HEK293 cells transfected with human SERT by liquid scintillation counting analysis; assay type: functional, cell-based
[24] = Inhibition of NE uptake in HEK293 cells transfected with human NET by liquid scintillation counting analysis; assay type: functional, cell-based
[25] = Inhibition of NE uptake in HEK293 cells transfected with human NET at 1 uM by liquid scintillation counting analysis; assay type: functional
[26] = Inhibition of DA uptake in HEK293 cells transfected with human DAT by liquid scintillation counting analysis; assay type: functional, cell-based
[27] = Inhibition of DA uptake in HEK293 cells transfected with human DAT at 1 uM by liquid scintillation counting analysis; assay type: functional
[28] = Neurotoxicity in ip dosed Kunming mouse after 15 mins by rotarod test; assay type: toxicity, organism-based; conditions: in vivo

Cholinesterase, sequence (P81908 whole entry): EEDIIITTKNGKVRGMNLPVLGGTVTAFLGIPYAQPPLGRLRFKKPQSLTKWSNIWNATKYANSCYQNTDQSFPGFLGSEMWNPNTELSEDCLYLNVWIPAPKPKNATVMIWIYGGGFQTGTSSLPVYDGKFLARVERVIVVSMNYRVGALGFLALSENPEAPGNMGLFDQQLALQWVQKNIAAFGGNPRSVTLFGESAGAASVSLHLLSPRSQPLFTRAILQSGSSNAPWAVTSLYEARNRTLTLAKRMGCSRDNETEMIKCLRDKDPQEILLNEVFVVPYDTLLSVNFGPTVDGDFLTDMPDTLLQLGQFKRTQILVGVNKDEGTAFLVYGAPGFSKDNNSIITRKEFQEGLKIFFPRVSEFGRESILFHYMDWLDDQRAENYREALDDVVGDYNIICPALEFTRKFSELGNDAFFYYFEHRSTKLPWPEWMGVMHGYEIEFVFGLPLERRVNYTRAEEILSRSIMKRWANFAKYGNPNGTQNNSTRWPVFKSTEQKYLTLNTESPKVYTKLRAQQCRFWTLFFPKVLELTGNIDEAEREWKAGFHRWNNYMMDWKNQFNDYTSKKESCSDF
T1 sequence (O42275 whole entry): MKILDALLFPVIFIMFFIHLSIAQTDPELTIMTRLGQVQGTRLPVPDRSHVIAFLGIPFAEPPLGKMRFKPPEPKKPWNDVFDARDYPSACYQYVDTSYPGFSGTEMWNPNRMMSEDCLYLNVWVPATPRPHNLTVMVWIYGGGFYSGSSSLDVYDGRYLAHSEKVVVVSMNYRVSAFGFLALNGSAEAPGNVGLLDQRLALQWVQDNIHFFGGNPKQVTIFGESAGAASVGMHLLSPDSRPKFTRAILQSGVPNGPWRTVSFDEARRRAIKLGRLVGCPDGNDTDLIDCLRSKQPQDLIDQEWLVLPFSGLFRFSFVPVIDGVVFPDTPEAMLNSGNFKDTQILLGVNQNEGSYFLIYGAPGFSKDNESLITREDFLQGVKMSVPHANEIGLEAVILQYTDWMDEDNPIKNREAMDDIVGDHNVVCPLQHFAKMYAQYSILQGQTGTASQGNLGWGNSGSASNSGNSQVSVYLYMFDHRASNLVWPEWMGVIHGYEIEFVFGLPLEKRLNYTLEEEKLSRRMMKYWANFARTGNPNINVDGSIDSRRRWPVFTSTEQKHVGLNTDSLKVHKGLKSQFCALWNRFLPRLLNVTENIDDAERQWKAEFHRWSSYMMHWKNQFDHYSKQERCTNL
Acetylcholinesterase (Electrophorus electricus), sequence (O42275 24-633 limits assumed): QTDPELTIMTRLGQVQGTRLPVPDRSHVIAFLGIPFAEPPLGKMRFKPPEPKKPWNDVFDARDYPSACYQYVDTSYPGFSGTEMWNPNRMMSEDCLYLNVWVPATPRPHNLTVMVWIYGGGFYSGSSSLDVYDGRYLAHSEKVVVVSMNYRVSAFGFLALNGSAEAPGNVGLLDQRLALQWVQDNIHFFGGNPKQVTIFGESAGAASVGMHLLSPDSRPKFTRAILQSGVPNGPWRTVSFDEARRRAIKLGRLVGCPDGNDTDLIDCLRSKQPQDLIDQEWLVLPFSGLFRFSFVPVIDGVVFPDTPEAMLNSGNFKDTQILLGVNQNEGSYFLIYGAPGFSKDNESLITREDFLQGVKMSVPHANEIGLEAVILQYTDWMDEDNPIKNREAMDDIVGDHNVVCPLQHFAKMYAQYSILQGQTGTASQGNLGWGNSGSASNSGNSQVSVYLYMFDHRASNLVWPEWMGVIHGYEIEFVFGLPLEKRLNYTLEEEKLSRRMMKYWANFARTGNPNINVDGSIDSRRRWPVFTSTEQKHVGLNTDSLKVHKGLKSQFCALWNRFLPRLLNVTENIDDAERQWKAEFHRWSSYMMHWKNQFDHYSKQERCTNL
Cholinesterase (Equus caballus), sequence (P81908 whole entry): as the sequence (P81908 whole entry) above

`COc1ccc(Oc2nc3nnnn3c3ccccc23)cc1` showed a Time (Mus musculus [1]) of 85.2 s.

For `Cc1ccccc1-n1c(C)nc2c(OCc3nnn(S(=O)(=O)c4ccc(N)cc4)n3)cccc2c1=O`, the ED50 (Rattus norvegicus [2]) was 72.3 mg/kg and the ED50 (Rattus norvegicus [3]) was 4.93 mg/kg.

With `O=[N+]([O-])c1ccccc1/C=N/NCCCCc1nnnn1-c1ccccc1` the inhibition [4] was 92% and the IC50 at 24 h ([5]; NIH/3T3 cells) was 55 µg/mL.

Compound `COc1ccccc1C1=C(C#N)/C(=C(/C#N)c2nnn[nH]2)NC(C)(c2ccccc2OC)C1` (configuration not stated) has a pIC50 (Cholinesterase) of 6.54 and a pIC50 (Acetylcholinesterase [6]) of 4.71.

Work on `CCCCCOc1nc2nnnn2c2ccccc12` yielded a Time (Mus musculus [1]) of 112.3 s.

Compound `Oc1cccc(/C=N/NCCCCc2nnnn2-c2ccccc2)c1` has an inhibition [7] of 51.3%.

For `CC1(c2ccc(F)cc2)CC(c2ccc(F)cc2)=C(C#N)/C(=C(/C#N)c2nnn[nH]2)N1` (configuration not stated), the pIC50 (Cholinesterase) was 4.41 and the pIC50 (Acetylcholinesterase [6]) was 5.70.

Compound `Cc1ccccc1-c1nnnn1Cc1cccc(F)c1` has an ED50 (Mus musculus [8]) of 39.9 mg/kg and a TD50 [9] of 450 mg/kg.

Work on `CNCCC(Oc1ccc(C(F)(F)F)cc1)c1ccccc1` (configuration not stated) [FLUOXETINE] yielded a Time (Mus musculus [10]) of 17.83 s, a Time (Mus musculus [1]) of 61.3 s and a Time (Mus musculus [11]) of 54.21 s.

For `Clc1ccc(C2Cc3nnnn3-c3ccsc32)cc1` (configuration not stated), the ED50 (Mus musculus [8]) was 9.5 mg/kg and the ED50 (Mus musculus [12]) was 20.5 mg/kg.

For `Clc1ccccc1-c1nnn[nH]1`, the ED50 (Mus musculus [13]) was 83.3 mg/kg.

`FC(F)(F)c1ccccc1C1Cc2nnnn2-c2ccsc21` (configuration not stated) showed an ED50 (Mus musculus [8]) of 19 mg/kg, an ED50 (Mus musculus [12]) of 26.2 mg/kg and a Time (Mus musculus [11]) of 68.43 s.

`FC(F)(F)c1cccc(C2Cc3nnnn3-c3ccsc32)c1` (configuration not stated) showed a Time (Mus musculus [11]) of 73.63 s.

Compound `Cc1ccccc1-n1c(C)nc2c(OCc3nnn(C(=O)c4ccc(N)cc4)n3)cccc2c1=O` has an ED50 (Rattus norvegicus [2]) of 48.4 mg/kg and an ED50 (Rattus norvegicus [3]) of 10.9 mg/kg.

In the case of `Cc1ccccc1-c1nn[nH]n1`, the ED50 (Mus musculus [14]) was 9.6 mg/kg, the TD50 [15] was 190 mg/kg and the selectivity ratio [16] was 19.7.

With `O=C1c2ccccc2C[C@@H]1Sc1nnnn1-c1ccc([N+](=O)[O-])cc1` the pIC50 (Acetylcholinesterase [17]) was 5.18.

In the case of `NC(=O)N1c2ccccc2C=Cc2ccccc21` [CARBAMAZEPINE], the ED50 (Mus musculus [8]) was 11.8 mg/kg and the ED50 (Mus musculus [18]) was 27.3 mg/kg.

In the case of `COc1cc2c(cc1OC)C(=O)C(CC1CCN(Cc3ccccc3)CC1)C2` (configuration not stated) [DONEPEZIL], the IC50 at 24 h ([5]; nih3t3) was 1.26 µM.

In the case of `CCCCCCOc1nc2nnnn2c2ccccc12`, the Time (Mus musculus [1]) was 62.2 s.

With `O=C(CCCSc1nnnn1-c1ccccc1)N/N=C/c1ccccc1[N+](=O)[O-]` the pIC50 (Acetylcholinesterase [19]) was 4.26.

For `O=C1NC(=O)C(c2ccccc2)(c2ccccc2)N1` [PHENYTOIN], the ED50 (Rattus norvegicus [2]) was > 500 mg/kg and the ED50 (Rattus norvegicus [3]) was 28.1 mg/kg.

Work on `Cc1ccc(-n2c(=O)c3ccccc3n3nnnc23)cc1` yielded a Time (Mus musculus [10]) of 11.83 s.

With `O=C1c2ccccc2C[C@@H]1Sc1nnnn1-c1ccccc1F` the pIC50 (Acetylcholinesterase [17]) was 5.39.

In the case of `O=C(CCCSc1nnnn1-c1ccccc1)N/N=C/c1cccc([N+](=O)[O-])c1`, the pIC50 (Acetylcholinesterase [19]) was 4.37.

Work on `O=C1c2ccccc2C[C@@H]1Sc1nnnn1-c1cccc(F)c1` yielded a pIC50 (Acetylcholinesterase [17]) of 5.58.

For `NC(=O)O[C@@H](Cn1ncnn1)c1ccccc1Cl` [CENOBAMATE], the ED50 (Mus musculus [20]) was 28.5 mg/kg and the ED50 (Mus musculus [21]) was 9.8 mg/kg.

`COc1ccc2c3c1O[C@H]1C[C@@H](O)C=C[C@@]31CCN(C)C2` [GALANTAMINE] gave an IC50 at 24 h ([5]; NIH/3T3 cells) of 7.28 µM.

Work on `Cc1ccccc1Cn1nnnc1-c1ccccc1C` yielded an ED50 (Mus musculus [8]) of 12.7 mg/kg and a TD50 [9] of 500 mg/kg.

`Fc1ccc(C(c2ccc(F)cc2)c2nnnn2CCCCN2CCC(Cc3ccccc3)CC2)cc1` gave an inhibition at 1 µM [22] of 77.6%, a pIC50 [23] of 6.34 and a pIC50 [24] of 6.53. For the same compound, the inhibition at 1 µM [25] was 81%, the pIC50 [26] was 7.24 and the inhibition at 1 µM [27] was 92.3%.

With `O=[N+]([O-])c1cccc(/C=N/NCCCCc2nnnn2-c2ccccc2)c1` the inhibition [4] was 98.5% and the IC50 at 24 h ([5]; NIH/3T3 cells) was 51.7 µg/mL.

In the case of `O=C1c2ccccc2C[C@@H]1Sc1nnnn1-c1ccc(F)cc1`, the pIC50 (Acetylcholinesterase [17]) was 5.52.

`Clc1ccc(C(c2ccccc2)c2nnnn2CCCCN2CCC(Cc3ccccc3)CC2)cc1` (configuration not stated) gave an inhibition at 1 µM [22] of 88.9%, a pIC50 [23] of 7.05 and a pIC50 [24] of 6.11. The inhibition at 1 µM [25] was 58.9%, the pIC50 [26] was 6.26 and the inhibition at 1 µM [27] was 67.8%.

Compound `O=c1c2ccccc2n2nnnc2n1-c1ccccc1F` has a Time (Mus musculus [10]) of 14.67 s.

With `Clc1ccc(Oc2nn3nnnc3c3ccccc23)cc1` the ED50 (Mus musculus [18]) was 24 mg/kg, the selectivity ratio [16] was 67.1 and the ED50 (Mus musculus [21]) was 6.8 mg/kg. It also gave a TD50 at 0.25 h [28] of 456 mg/kg.

`CN(C)C(=O)Oc1cccc([N+](C)(C)C)c1` [NEOSTIGMINE] gave a pIC50 (Cholinesterase) of 5.08 and a pIC50 (Acetylcholinesterase [6]) of 7.72.

In the case of `CCC1(C)CC(=O)NC1=O` (configuration not stated) [ETHOSUXIMIDE], the ED50 (Rattus norvegicus [2]) was 167 mg/kg, the ED50 (Mus musculus [12]) was 106 mg/kg and the ED50 (Rattus norvegicus [3]) was > 500 mg/kg.

In the case of `FC(F)(F)c1ccc(C2Cc3nnnn3-c3ccsc32)cc1` (configuration not stated), the ED50 (Mus musculus [8]) was 23.4 mg/kg, the ED50 (Mus musculus [12]) was 64.7 mg/kg and the Time (Mus musculus [11]) was 51.43 s.

With `O=C1c2ccccc2C[C@@H]1Sc1nnnn1-c1cccc([N+](=O)[O-])c1` the pIC50 (Acetylcholinesterase [17]) was 5.54.

In the case of `Cc1ccccc1-n1nnnc1S[C@H]1Cc2ccccc2C1=O`, the pIC50 (Acetylcholinesterase [17]) was 5.12.

For `Cc1ccccc1-n1c(C)nc2c(OCc3nnn(Cc4ccc(-c5ccncc5)cc4)n3)cccc2c1=O`, the ED50 (Rattus norvegicus [2]) was > 100 mg/kg and the ED50 (Rattus norvegicus [3]) was 12.9 mg/kg.

Compound `COc1ccc(C2Cc3nnnn3-c3ccsc32)cc1` (configuration not stated) has an ED50 (Mus musculus [8]) of 44 mg/kg and an ED50 (Mus musculus [12]) of 65.5 mg/kg.

With `Cc1cccc(-n2c(=O)c3ccccc3n3nnnc23)c1` the Time (Mus musculus [10]) was 16.5 s.

`O=C(CCCSc1nnnn1-c1ccccc1)N/N=C/c1cccc(O)c1` gave a pIC50 (Acetylcholinesterase [19]) of 4.12 and an IC50 at 24 h ([5]; NIH/3T3 cells) of 105 µM.
